Experimental data published in US12171230B2, “Herbicidal compositions” (Bayer Aktiengesellschaft, priority 2018, dated 2024).
Values joined by “and” are separate entries in the source; they are usually repeats but may differ in a detail not shown here. Equal values may be shown once.

Columns and labels:
Format in all cases: in vivo
Matricaria inodora = test: Post-emergence herbicidal action against Matricaria inodora
Brachiaria decumbens = test: Post-emergence herbicidal action against Brachiaria decumbens; conditions: g of a.i./ha: 200, 100, 100 + 200
Text: (§1) The following abbreviations are used in the description and the tables that follow: • g of a.i./ha=grams of active substance (active ingredient) (=100% active compound) per hectare; • The sum total of the effects of the individual applications is reported under E^A; • expected values according to Colby are each reported under E^C.
(§2) The rating period is reported in days after application (DAT).

Echinochloa crus-galli = test: Post-emergence herbicidal action against Echinochloa crus-galli; conditions: 100 g a.i./ ha, post-emergence
Procedure, shortened: (§3)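 Pot-grown plants, three weeks old at the three-leaf stage, received foliar sprays of various dosages. Visual assessment relative to untreated plants followed 3 to 4 weeks later.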

Lolium rigidum = test: Post-emergence herbicidal action against Lolium rigidum
Procedure, shortened: (§4)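 Dose unit: g a.i./ha (100% active). Scoring in days after application (DAT). E^A = sum of single-application effects; E^C = Colby expected value.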

Digitaria horizontalis = test: Post-emergence herbicidal action against Digitaria horizontalis
Text: as §1, §2

Brachiaria plantaginea = test: Post-emergence herbicidal action against Brachiaria plantaginea
Text: as §1, §2

Bromus sterilis = test: Post-emergence herbicidal action against Bromus sterilis
Procedure, shortened: as §4

Digitaria sanguinalis = test: Post-emergence herbicidal action against Digitaria sanguinalis
Procedure, shortened: as §3

Galium aparine = test: Post-emergence herbicidal action against Galium aparine
Procedure, shortened: as §3

Sorghum halepense = test: Post-emergence herbicidal action against Sorghum halepense; conditions: 1.7 g of a.i./ha
Procedure, shortened: as §3

Alopecurus myosuroides = test: Post-emergence herbicidal action against Alopecurus myosuroides
Procedure, shortened: as §4

[1] = (Z61) post-emergence, g of a.i./ha: 1, 270, 90, 30, 1 + 270, 1 + 90, 1 + 30
[2] = (Z61) post-emergence, g of a.i./ha: 200, 100, 100 + 200

C=C[C@]1(C(=O)N[C@H]2CO[C@@H](C(=O)OC)C2)CC(c2cc(F)cc(F)c2)=NO1 (relative stereo) [Compound A3, methyl rel-(2R,4R)-4-[[(5S)-3-(3,5-difluorophenyl)-5-vinyl-4H-isoxazole-5-carbonyl]amino]tetrahydrofuran-2-carboxylate]
Herbicidal action in [%] 14 DAT against Matricaria inodora (Matricaria inodora; 16 g of a.i./ha): 20% and 40% | Herbicidal action (Matricaria inodora; 28 DAT, 1 g a.i./ha): 0% | Herbicidal action against Matricaria inodora (Matricaria inodora; 28 DAT, 1 g of a.i./ha): 15% | Herbicidal action against Matricaria inodora (Matricaria inodora; 28 DAT, 16 g of a.i./ha): 15% | Herbicidal action 14 DAT against Matricaria inodora (Matricaria inodora; (Z61) post-emergence, g of a.i./ha: 1, 270, 30, 1 + 270, 1 + 30): 0% | Herbicidal action in [%] 14 DAT against Matricaria inodora (Matricaria inodora; post-emergence, 14 DAT, 4 g of a.i./ha): 30% | Herbicidal action in [%] 14 DAT against Matricaria inodora (Matricaria inodora; post-emergence, 14 DAT, 16 g of a.i./ha): 40% | Herbicidal action 28 DAT against Brachiaria decumbens (Brachiaria decumbens): 87% | Herbicidal action 37 DAT [%] against Echinochloa crus-galli (Echinochloa crus-galli): 93% | Herbicidal action 14 DAT against Lolium rigidum (Lolium rigidum; 1 g of a.i./ha): 35% | Herbicidal action 28 DAT against Lolium rigidum (Lolium rigidum; 1 g of a.i./ha): 15% | Herbicidal action 28 DAT against Lolium rigidum (Lolium rigidum; 4 g of a.i./ha): 50% | Herbicidal action in [%] 14 DAT against Lolium rigidum (Lolium rigidum; 1 g of a.i./ha): 40% | Herbicidal action in [%] 14 DAT against Lolium rigidum (Lolium rigidum; 4 g of a.i./ha): 85% | Herbicidal action in [%] 28 DAT against Lolium rigidum (Lolium rigidum; 1 g of a.i./ha): 10% | Herbicidal action in [%] 28 DAT against Lolium rigidum (Lolium rigidum; 4 g of a.i./ha): 70% | Herbicidal action 14 DAT against Lolium rigidum (Lolium rigidum; [1]): 35% | Herbicidal action 28 DAT against Digitaria horizontalis (Digitaria horizontalis; [2]): 96% | Herbicidal action 28 DAT against Digitaria horizontalis (Digitaria horizontalis; A3/Asulam, first sub-table, post-emergence, g of a.i./ha by row: 720, 100, 100 + 720): 96% | Herbicidal action 28 DAT against Digitaria horizontalis (Digitaria horizontalis; A3/Asulam, second sub-table, post-emergence, g of a.i./ha by row: 720, 100, 100 + 720): 87% | Herbicidal action 28 DAT [%] against Brachiaria plantaginea (Brachiaria plantaginea; 100 g of a.i./ha): 82% | Herbicidal action 28 DAT against Brachiaria plantaginea (Brachiaria plantaginea; [2]): 82% | Herbicidal action 28 DAT against Brachiaria plantaginea (Brachiaria plantaginea; A3/Asulam, post-emergence, g of a.i./ha by row: 720, 100, 100 + 720): 82% | Herbicidal action 14 DAT against Bromus sterilis (Bromus sterilis; 1 g of a.i./ha): 15% | Herbicidal action 28 DAT against Bromus sterilis (Bromus sterilis; 1 g of a.i./ha): 15% | Herbicidal action 14 DAT against Bromus sterilis (Bromus sterilis; 4 g of a.i./ha): 85% | Herbicidal action in [%] 14 DAT against Bromus sterilis (Bromus sterilis; 14 DAT, 1 g of a.i./ha): 30% | Herbicidal action in [%] 28 DAT against Bromus sterilis (Bromus sterilis; 1 g of a.i./ha): 30% | Herbicidal action in [%] 28 DAT against Bromus sterilis (Bromus sterilis; 4 g of a.i./ha): 90% | Herbicidal action 28 DAT against Bromus sterilis (Bromus sterilis; (Z61) post-emergence, g of a.i./ha: 1, 270, 90, 1 + 270, 1 + 90): 15% | Herbicidal action 21 DAT [%] against Digitaria sanguinalis (Digitaria sanguinalis; 1.7 g of a.i./ha): 20% and 10% | Herbicidal action 21 DAT against Digitaria sanguinalis (Digitaria sanguinalis; 1.7 g of a.i./ha): 10% | Herbicidal action 21 DAT [%] against Digitaria sanguinalis (Digitaria sanguinalis; 1.7 g of a.i./ha, post-emergence): 10% | Herbicidal action 21 DAT [%] against Digitaria sanguinalis (Digitaria sanguinalis; 5 g of a.i./ha): 80% | Herbicidal action 21 DAT against Digitaria sanguinalis (Digitaria sanguinalis; 5 g of a.i./ha): 80% | Herbicidal action (Digitaria sanguinalis; 21 DAT, 1.7 g a.i./ha): 10% | Herbicidal action 37 DAT against Digitaria sanguinalis (Digitaria sanguinalis; (Z61) post-emergence, g of a.i./ha: 180, 100, 100 + 180): 94% | Herbicidal action 14 DAT against Galium aparine (Galium aparine; 1 g of a.i./ha): 40% | Herbicidal action 28 DAT against Galium aparine (Galium aparine; 1 g of a.i./ha): 15% | Herbicidal action in [%] 14 DAT against Galium aparine (Galium aparine; 1 g of a.i./ha): 40% | Herbicidal action in [%] 28 DAT against Galium aparine (Galium aparine; 1 g of a.i./ha): 15% | Herbicidal action in [%] 28 DAT against Galium aparine (Galium aparine; 4 g of a.i./ha): 65% | Herbicidal action in [%] 28 DAT against Galium aparine (Galium aparine; 4 g of a.i./ha, post-emergence): 70% | Herbicidal action against Galium aparine (Galium aparine; 14 DAT, 1 g of a.i./ha): 40% | Herbicidal action 28 DAT against Galium aparine (Galium aparine; 16 g of a.i./ha): 75% | Herbicidal action in [%] 28 DAT against Galium aparine (Galium aparine; 16 g of a.i./ha): 75% | Herbicidal action in [%] 28 DAT against Galium aparine (Galium aparine; 16 g of a.i./ha, post-emergence): 80% | Herbicidal action against Galium aparine (Galium aparine; 28 DAT, 1 g of a.i./ha): 15% | Herbicidal action 14 DAT against Galium aparine (Galium aparine; [1]): 40% | Herbicidal action 21 DAT [%] against Sorghum halepense (Sorghum halepense): 40% | Herbicidal action 21 DAT against Sorghum halepense (Sorghum halepense): 40% | Herbicidal action 21 DAT [%] against Sorghum halepense (Sorghum halepense; post-emergence): 40% | Herbicidal action 14 DAT against Alopecurus myosuroides (Alopecurus myosuroides; 1 g of a.i./ha): 15% | Herbicidal action 28 DAT against Alopecurus myosuroides (Alopecurus myosuroides; 1 g of a.i./ha): 15% | Herbicidal action 28 DAT against Alopecurus myosuroides (Alopecurus myosuroides; 4 g of a.i./ha): 50% and 60% | Herbicidal action in [%] 14 DAT against Alopecurus myosuroides (Alopecurus myosuroides; 1 g of a.i./ha): 30% | Herbicidal action in [%] 14 DAT against Alopecurus myosuroides (Alopecurus myosuroides; 4 g of a.i./ha): 75% | Herbicidal action in [%] 28 DAT against Alopecurus myosuroides (Alopecurus myosuroides; 1 g of a.i./ha): 10% | Herbicidal action in [%] 28 DAT against Alopecurus myosuroides (Alopecurus myosuroides; 4 g of a.i./ha): 60%
